Reference: ChEMBL document CHEMBL5131471, “Design, synthesis and mechanism studies of novel dual PARP1/BRD4 inhibitors against pancreatic cancer” (Eur J Med Chem, 2022)
The source made the active and inactive calls. No cut-off for these calls is given here.

Key:
SW1990 [1] = test: Induction of apoptosis in human SW1990 cells assessed as necrotic cells at 6 uM measured after 4 days by Annexin V-FITC and propidium iodide staining based flow cytometry (reference value: 2.45%); format: functional; conditions: time 4 day
SW1990 [2] = test: Induction of apoptosis in human SW1990 cells assessed as late apoptotic cells at 6 uM measured after 4 days by Annexin V-FITC and propidium iodide staining based flow cytometry (reference value: 7.23%); format: functional; conditions: time 4 day
Mus musculus [3] = test: Upregulation of CCNB1 expression in nude mouse xenografted with human SW1990 cells at 45 mg/kg, ip measured after 4 days by Q-PCR analysis; format: functional, organism-based; conditions: time 4.0 day
SW1990 [4] = test: Upregulation of E2F2 expression in human SW1990 cells at 6 uM measured after 4 days by Western blot analysis; format: functional, cell-based; conditions: time 4.0 day
SW1990 [5] = test: Effect on ALDH1A1 gene expression in human SW1990 cells at 6 uM by Q-PCR analysis; format: functional, cell-based
SW1990 [6] = test: Downregulation of Ki67 expression in human SW1990 cells at 45 mg/kg, ip measured after 28 days by immuno histochemical staining based fluorescence microscopic analysis; format: functional, organism-based; conditions: time 28.0 day
SW1990 [7] = test: Upregulation of CDK6 expression in human SW1990 cells at 6 uM measured after 4 days by Western blot analysis; format: functional, cell-based; conditions: time 4.0 day
SW1990 [8] = test: Upregulation of FOXM1 expression in human SW1990 cells at 6 uM measured after 4 days by Western blot analysis; format: functional, cell-based; conditions: time 4.0 day
SW1990 [9] = test: Induction of BRCA1 accumulation in nucleus of human SW1990 cells at 6 uM measured after 4 days by Western blot analysis; format: functional, cell-based; conditions: time 4.0 day
SW1990 [10] = test: Upregulation of BRD4 expression in human SW1990 cells at 6 uM measured after 4 days by Western blot analysis; format: functional, cell-based; conditions: time 4.0 day
SW1990 [11] = test: Effect on c-Myc gene expression in human SW1990 cells at 4 uM by Q-PCR analysis; format: functional, cell-based
[12] = Toxicity in nude mouse xenografted with human SW1990 cells assessed as liver damage at 15 mg/kg, ip administered for 28 days by H and E staining based fluorescence microscopic analysis; format: organism-based; conditions: in vivo, 672 h, time 28 day
SW1990 [13] = test: Induction of DNA damage in human SW1990 cells assessed as increase in gammaH2AX expression at 1 uM incubated for 4 days in presence of Olaparib by DAPI staining based laser confocal microscopic analysis; format: functional, cell-based; conditions: time 4.0 day
SW1990 [14] = test: Effect on CCND1 gene expression in human SW1990 cells at 4 uM by Q-PCR analysis; format: functional, cell-based
SW1990 [15] = test: Effect on FOXO1 gene expression in human SW1990 cells at 4 uM by Q-PCR analysis; format: functional, cell-based
SW1990 [16] = test: Effect on ALDH1A1 gene expression in human SW1990 cells at 4 uM by Q-PCR analysis; format: functional, cell-based
SW1990 [17] = test: Effect on BRCA2 gene expression in human SW1990 cells at 1 uM in presence of Olaparib by Q-PCR analysis; format: functional, cell-based
SW1990 [18] = test: Effect on Rad51 gene expression in human SW1990 cells at 1 uM in presence of Olaparib by Q-PCR analysis; format: functional, cell-based
SW1990 [19] = test: Downregulation of Ki67 expression in human SW1990 cells at 15 mg/kg, ip in presence of 45 mg/kg, ip Olaparib measured after 28 days by immuno histochemical staining based fluorescence microscopic analysis; format: functional, organism-based; conditions: time 28.0 day
CAPAN-1 = test: Antiproliferative activity against human CAPAN-1 cells assessed as inhibition of cell growth measured after 4 days by MTT assay; format: functional, cell-based; conditions: CAPAN-1, 96 h
SW1990 [20] = test: Antitumor activity against human SW1990 cells xenografted in nude mouse assessed as reduction in tumor size at 30 mg/kg, ip administered for 28 days and measured every 3 days by vernier caliper method; format: functional, organism-based; conditions: time 28.0 day
SW1990 [21] = test: Antitumor activity against human SW1990 cells xenografted in nude mouse assessed as reduction in tumor weight at 30 mg/kg, ip administered for 28 days and measured every 3 days by vernier caliper method; format: functional, organism-based; conditions: time 28.0 day
[22] = Toxicity in nude mouse xenografted with human SW1990 cells assessed as kidney damage at 30 mg/kg, ip administered for 28 days by H and E staining based fluorescence microscopic analysis; format: organism-based; conditions: in vivo, 672 h, time 28 day
Mus musculus [23] = test: Inhibition of BRD4 expression in nude mouse xenografted with human SW1900 cells at 30 mg/kg, ip administered for 28 days by DAPI staining based laser confocal microscopic analysis; format: functional, organism-based; conditions: time 28.0 day
Mus musculus [24] = test: Inhibition of BRD4 expression in nude mouse xenografted with human SW1900 cells at 30 mg/kg, ip administered for 28 days by Western blot analysis; format: functional, organism-based; conditions: time 28.0 day
SW1990 [25] = test: Induction of apoptosis in human SW1990 cells assessed as late apoptotic cells at 1 uM measured after 4 days by Annexin V-FITC and propidium iodide staining based flow cytometry (reference value: 7.23%); format: functional; conditions: time 4 day
SW1990 [26] = test: Induction of apoptosis in human SW1990 cells assessed as early apoptotic cells at 2 uM measured after 4 days by Annexin V-FITC and propidium iodide staining based flow cytometry (reference value: 1.62%); format: functional; conditions: time 4 day
SW1990 [27] = test: Induction of cell cycle arrest in human SW1990 cells assessed as accumulation of cells at G0/G1 phase at 1 uM incubated for 4 days by propidium iodide staining based flow cytometry (reference value: 64.79%); format: functional; conditions: time 4 day
Mus musculus [28] = test: Inhibition of CDK6 expression in nude mouse xenografted with human SW1990 cells at 30 mg/kg, ip measured after 4 days by Western blot analysis; format: functional, organism-based; conditions: time 4.0 day
SW1990 [29] = test: Inhibition of homologous recombinant repair in human SW1990 cells assessed as reversal of Olaparib-induced HEXIM1 expression at 1 to 2 uM after 4 days by Western blot analysis; format: functional, cell-based; conditions: dose 1-2 µM, time 4.0 day
SW1990 [30] = test: Inhibition of homologous recombinant repair in human SW1990 cells assessed as reversal of Olaparib-induced MDC1 expression at 1 to 2 uM after 4 days by Western blot analysis; format: functional, cell-based; conditions: dose 1-2 µM, time 4.0 day
SW1990 [31] = test: Effect on c-Myc gene expression in human SW1990 cells at 1 to 2 uM by Q-PCR analysis; format: functional, cell-based; conditions: dose 1-2 µM
SW1990 [32] = test: Effect on CDC25B gene expression in human SW1990 cells at 1 to 2 uM by Q-PCR analysis; format: functional, cell-based; conditions: dose 1-2 µM
SW1990 [33] = test: Effect on HEXIM1 gene expression in human SW1990 cells at 1 to 2 uM by Q-PCR analysis; format: functional, cell-based; conditions: dose 1-2 µM
SW1990 [34] = test: Effect on BRCA1 gene expression in human SW1990 cells at 1 to 2 uM by Q-PCR analysis; format: functional, cell-based; conditions: dose 1-2 µM
SW1990 [35] = test: Downregulation of Ki67 expression in human SW1990 cells at 30 mg/kg, ip measured after 28 days by immuno histochemical staining based fluorescence microscopic analysis; format: functional, organism-based; conditions: time 28.0 day
SW1990 [36] = test: Inhibition of CCNB1 protein expression in human SW1990 cells at 1 to 2 uM measured after 4 days by Western blot analysis; format: functional, cell-based; conditions: dose 1-2 µM, time 4.0 day
SW1990 [37] = test: Inhibition of CDK6 protein expression in human SW1990 cells at 1 to 2 uM measured after 4 days by Western blot analysis; format: functional, cell-based; conditions: dose 1-2 µM, time 4.0 day
Mus musculus [38] = test: Induction of DNA damage in nude mouse xenografted with human SW1990 cells assessed as increase in gammaH2AX expression at 30 mg/kg, ip incubated for 4 days by DAPI staining based laser confocal microscopic analysis; format: functional, organism-based; conditions: time 4.0 day

In the case of O=C(c1cc(Cc2n[nH]c(=O)c3ccccc23)ccc1F)N1CCN(C(=O)C2CC2)CC1 [OLAPARIB], the Activity (SW1990 [1]) is reported as 1.66%, the Activity (SW1990 [2]) is reported as 22.9% and the Activity (Mus musculus [3]) is reported as “Active”. For the same compound, the Activity (SW1990 [4]) was “Active”, the Activity (SW1990 [5]) was “Active” and the Activity (SW1990 [6]) was “Active”. For the same compound, the Activity (SW1990 [7]) was “Active”, the Activity (SW1990 [8]) was “Active” and the Activity (SW1990 [9]) was “Active”. The Activity (SW1990 [10]) was “Active”.

In the case of Cc1sc2c(c1C)C(c1ccc(Cl)cc1)=N[C@@H](CC(=O)OC(C)(C)C)c1nnc(C)n1-2, the Activity (SW1990 [11]) is reported as “Active”, the Activity [12] is reported as “Non-Toxic” and the Activity (SW1990 [13]) is reported as “Active”. For the same compound, the Activity (SW1990 [14]) was “Active”, the Activity (SW1990 [15]) was “Active” and the Activity (SW1990 [16]) was “Active”. The Activity (SW1990 [17]) was “Active”, the Activity (SW1990 [18]) was “Active” and the Activity (SW1990 [19]) was “Active”.

With Cc1noc(C)c1-c1ccc2c(c1)C(c1ccccc1)N(Cc1nc3c(C(N)=O)cccc3[nH]1)C(=O)N2C (centres undefined) the IC50 (CAPAN-1) was 1710 nM, the Activity (SW1990 [20]) was “Active” and the Activity (SW1990 [21]) was “Active”. For the same compound, the Activity [22] was “Non-Toxic”, the inhibition (Mus musculus [23]) was “Active” and the inhibition (Mus musculus [24]) was “Active”. For the same compound, the Activity (SW1990 [25]) was 33.6%, the Activity (SW1990 [26]) was 1.06% and the Activity (SW1990 [27]) was 74.9%. The inhibition (Mus musculus [28]) was “Active”, the inhibition (SW1990 [29]) was “Active” and the inhibition (SW1990 [30]) was “Active”. For the same compound, the Activity (SW1990 [31]) was “Active”, the Activity (SW1990 [32]) was “Active” and the Activity (SW1990 [33]) was “Active”. The Activity (SW1990 [34]) was “Active”, the Activity (SW1990 [35]) was “Active” and the inhibition (SW1990 [36]) was “Active”. The inhibition (SW1990 [37]) was “Active” and the Activity (Mus musculus [38]) was “Active”.
